Measurements: US20230271968A1, “PYRAZOLOPYRIMIDINE COMPOUND USED AS ATR KINASE INHIBITOR” (priority 2020, published 2023)
Where two headings read alike, the source gives them in different places.

Experiments:
ATR kinase = ATR kinase (Homo sapiens (Human), UniProt Q13535); assay: Assay of ATR kinase activity (time-resolved fluorescence, phosphorylation of p53-derived protein); format: biochemical; conditions: ATR/ATRIP, p53 substrate, 30 minutes at room temperature
Description: The amount of phosphorylated protein was determined by time-resolved fluorescence in this assay. The amount of phosphorylated protein was detected by anti-p53-phospho-(serine 15)-K-specific antibody (Cisbio, art. No.: 61GSTDLA) and d2 labeled anti-GST antibody (Cisbio, art. No. 61P08KAE). […] The reagents used above were purchased from Sigma or Invitrogen, except for those whose manufacturers were mentioned.
Operations were as Follows
4×p53 substrate working solution (40 nM) was prepared with 1×reaction buffer, and 2.5 μL of the 4×p53 substrate working solution was added to a 384-well analysis plate. […] 4×ATP working solution (2 mM) was prepared with deionized water, and 2.5 μL of the 4×ATP working solution was added to a 384-well analysis plate. The plates were incubated at room temperature in dark for 30 minutes. […] Finally, 5 μL of assay mixture (0.084 ng/μL Anti-phospho-p53 (ser15)-K and 5 ng/μL Anti-GST-d2) was added to the 384 well analysis plates, and incubated at room temperature overnight. The fluorescence signal was detected with ENVISION (Perkinelmer) instrument (excitation wavelength: 320 nm, emission wavelength: 665 nm and 615 nm). […] IC50 values of compounds were calculated by standard software for parameter fitting (GraphPad Prism 6.0).

[1] = test system: TOV21G (ovarian cancer) cells; assay: Cell proliferation inhibition in vitro, CellTiter-Glo luminescence, TOV21G; format: cell-based, human; conditions: read-out: TOV21G/IC50/μM
Description: (§1) By detecting the effect of compounds on cell activity in vitro in tumor cell lines TOV21G (ovarian cancer) and MV4-11 (leukemia), the inhibitory effect of compounds on cell proliferation was studied in this assay.
(§2) TOV21G cells and MV4-11 cells were purchased from American Type Culture Collection (ATCC).
About 1000 cells were inoculated in each well of a 96-well culture plate, and cultured for 24 hours. Different concentrations (0-10 μM) of compounds to be assayed were added to treat the cells. Each group was assayed in triplicate. Blank wells (containing medium only) and control wells (inoculated cells without being treated with drug) were set. Cells were cultured for 120 hours. 40 μL of Cell Titer-Glo solutions (Promega, #G7573) were added to each well, and the cells were incubated with shaking for 20 min in the dark.
(§3) Inhibition rate (%)=100%×(control well−assay well)/(control well−blank well)

MV4-11 (leukemia) cells = assay: Cell proliferation inhibition in vitro, CellTiter-Glo luminescence, MV4-11; format: cell-based, human; conditions: MV4-11 cells, 120 hours
Description: as §1, §2
MV-4-11 cells were cultured in IMDM medium (containing 20% of FBS). About 10,000 cells were inoculated in each well of a 96-well culture plate, and treated by adding different concentrations (0-10 μM) of compounds to be assayed. Each group was assayed in triplicate. Blank wells (containing medium only) and control wells (inoculated cells without being treated with drug) were set. Cells were cultured for 120 hours. 40 μL of Cell Titer-Glo solutions were added to each well, and the cells were incubated with shaking for 20 min in the dark. 100 μL of solution was transferred from each well to a 96-well blank plate, and the luminescence value was read by Biotek Synergy H1 multifunctional microplate reader.
as §3

[2] = In vivo pharmacokinetics in male ICR mice, oral gavage; conditions: mouse, 10 mg/kg, plasma
Description: In vivo pharmacokinetic studies were performed on the compounds of the present disclosure.
Male ICR mice (3 mice/group) were administered orally by gavage at a dose of 10 mg/kg. The plasma samples were collected before administration (0 h) and after administration (0.25, 0.5, 1, 2, 4, 6, 8, 24 h). The collected samples were subjected to LC/MS/analysis, and the data were collected. The relevant pharmacokinetic parameters were calculated by Analyst v1.6.2 (AB Applied Biosystems Company, USA) software using the collected analytical data.

[3] = In vitro stability assay in human liver microsome; format: in vitro ADME; conditions: human liver microsomes, compound 2.0 nM, with or without NADPH, within 60 minutes of incubation; read-out: Human liver microsome t1/2
Description: (§4) The compounds of the present disclosure were subjected to stability assay in liver microsome. The compound to be assayed (with a final concentration of 2.0 nM) was co-incubated with human/mouse liver microsomes with or without the addition of NADPH. The concentration of the compound in the supernatant was determined within 60 minutes of incubation.

[4] = In vitro stability assay in mouse liver microsome; format: in vitro ADME; conditions: mouse liver microsomes, compound 2.0 nM, with or without NADPH, within 60 minutes of incubation; read-out: Mouse liver microsome t1/2
Description: as §4

ATM = ATM (Homo sapiens (Human), UniProt Q13315); assay: Kinase selectivity: inhibitory activity against ATM; format: biochemical; conditions: 3-fold serial dilution from 10 μM to 0.51 nM, 10 concentrations
Description: (§5) The compounds of the present disclosure were assayed for inhibition of the same family (ATM, DNA-PK, PI3K, mTOR): […]

DNA-PK = DNA-PK (Homo sapiens (Human), UniProt P78527); assay: Kinase selectivity: inhibitory activity against DNA-PK; format: biochemical; conditions: 3-fold serial dilution from 10 μM to 0.51 nM, 10 concentrations; read-out: IC50/DNAPK
Description: as §5

PI3Kα = PI3Kα (Homo sapiens (Human), UniProt P42336); assay: Kinase selectivity: inhibitory activity against PI3Kα; format: biochemical; conditions: 3-fold serial dilution from 10 μM to 0.51 nM, 10 concentrations
Description: as §5

PI3Kδ = PI3Kδ (Homo sapiens (Human), UniProt O00329); assay: Kinase selectivity: inhibitory activity against PI3Kδ; format: biochemical; conditions: 3-fold serial dilution from 10 μM to 0.51 nM, 10 concentrations
Description: as §5

mTOR = mTOR (Homo sapiens (Human), UniProt P42345); assay: Kinase selectivity: inhibitory activity against mTOR; format: biochemical; conditions: 3-fold serial dilution from 10 μM to 0.51 nM, 10 concentrations
Description: as §5

[5] = Homo sapiens, TOV21G cells, 120 hours, CellTiter-Glo
[6] = TOV21G cells, 120 hours, CellTiter-Glo

Sequence of ATR kinase (Q13535 whole entry, looked up): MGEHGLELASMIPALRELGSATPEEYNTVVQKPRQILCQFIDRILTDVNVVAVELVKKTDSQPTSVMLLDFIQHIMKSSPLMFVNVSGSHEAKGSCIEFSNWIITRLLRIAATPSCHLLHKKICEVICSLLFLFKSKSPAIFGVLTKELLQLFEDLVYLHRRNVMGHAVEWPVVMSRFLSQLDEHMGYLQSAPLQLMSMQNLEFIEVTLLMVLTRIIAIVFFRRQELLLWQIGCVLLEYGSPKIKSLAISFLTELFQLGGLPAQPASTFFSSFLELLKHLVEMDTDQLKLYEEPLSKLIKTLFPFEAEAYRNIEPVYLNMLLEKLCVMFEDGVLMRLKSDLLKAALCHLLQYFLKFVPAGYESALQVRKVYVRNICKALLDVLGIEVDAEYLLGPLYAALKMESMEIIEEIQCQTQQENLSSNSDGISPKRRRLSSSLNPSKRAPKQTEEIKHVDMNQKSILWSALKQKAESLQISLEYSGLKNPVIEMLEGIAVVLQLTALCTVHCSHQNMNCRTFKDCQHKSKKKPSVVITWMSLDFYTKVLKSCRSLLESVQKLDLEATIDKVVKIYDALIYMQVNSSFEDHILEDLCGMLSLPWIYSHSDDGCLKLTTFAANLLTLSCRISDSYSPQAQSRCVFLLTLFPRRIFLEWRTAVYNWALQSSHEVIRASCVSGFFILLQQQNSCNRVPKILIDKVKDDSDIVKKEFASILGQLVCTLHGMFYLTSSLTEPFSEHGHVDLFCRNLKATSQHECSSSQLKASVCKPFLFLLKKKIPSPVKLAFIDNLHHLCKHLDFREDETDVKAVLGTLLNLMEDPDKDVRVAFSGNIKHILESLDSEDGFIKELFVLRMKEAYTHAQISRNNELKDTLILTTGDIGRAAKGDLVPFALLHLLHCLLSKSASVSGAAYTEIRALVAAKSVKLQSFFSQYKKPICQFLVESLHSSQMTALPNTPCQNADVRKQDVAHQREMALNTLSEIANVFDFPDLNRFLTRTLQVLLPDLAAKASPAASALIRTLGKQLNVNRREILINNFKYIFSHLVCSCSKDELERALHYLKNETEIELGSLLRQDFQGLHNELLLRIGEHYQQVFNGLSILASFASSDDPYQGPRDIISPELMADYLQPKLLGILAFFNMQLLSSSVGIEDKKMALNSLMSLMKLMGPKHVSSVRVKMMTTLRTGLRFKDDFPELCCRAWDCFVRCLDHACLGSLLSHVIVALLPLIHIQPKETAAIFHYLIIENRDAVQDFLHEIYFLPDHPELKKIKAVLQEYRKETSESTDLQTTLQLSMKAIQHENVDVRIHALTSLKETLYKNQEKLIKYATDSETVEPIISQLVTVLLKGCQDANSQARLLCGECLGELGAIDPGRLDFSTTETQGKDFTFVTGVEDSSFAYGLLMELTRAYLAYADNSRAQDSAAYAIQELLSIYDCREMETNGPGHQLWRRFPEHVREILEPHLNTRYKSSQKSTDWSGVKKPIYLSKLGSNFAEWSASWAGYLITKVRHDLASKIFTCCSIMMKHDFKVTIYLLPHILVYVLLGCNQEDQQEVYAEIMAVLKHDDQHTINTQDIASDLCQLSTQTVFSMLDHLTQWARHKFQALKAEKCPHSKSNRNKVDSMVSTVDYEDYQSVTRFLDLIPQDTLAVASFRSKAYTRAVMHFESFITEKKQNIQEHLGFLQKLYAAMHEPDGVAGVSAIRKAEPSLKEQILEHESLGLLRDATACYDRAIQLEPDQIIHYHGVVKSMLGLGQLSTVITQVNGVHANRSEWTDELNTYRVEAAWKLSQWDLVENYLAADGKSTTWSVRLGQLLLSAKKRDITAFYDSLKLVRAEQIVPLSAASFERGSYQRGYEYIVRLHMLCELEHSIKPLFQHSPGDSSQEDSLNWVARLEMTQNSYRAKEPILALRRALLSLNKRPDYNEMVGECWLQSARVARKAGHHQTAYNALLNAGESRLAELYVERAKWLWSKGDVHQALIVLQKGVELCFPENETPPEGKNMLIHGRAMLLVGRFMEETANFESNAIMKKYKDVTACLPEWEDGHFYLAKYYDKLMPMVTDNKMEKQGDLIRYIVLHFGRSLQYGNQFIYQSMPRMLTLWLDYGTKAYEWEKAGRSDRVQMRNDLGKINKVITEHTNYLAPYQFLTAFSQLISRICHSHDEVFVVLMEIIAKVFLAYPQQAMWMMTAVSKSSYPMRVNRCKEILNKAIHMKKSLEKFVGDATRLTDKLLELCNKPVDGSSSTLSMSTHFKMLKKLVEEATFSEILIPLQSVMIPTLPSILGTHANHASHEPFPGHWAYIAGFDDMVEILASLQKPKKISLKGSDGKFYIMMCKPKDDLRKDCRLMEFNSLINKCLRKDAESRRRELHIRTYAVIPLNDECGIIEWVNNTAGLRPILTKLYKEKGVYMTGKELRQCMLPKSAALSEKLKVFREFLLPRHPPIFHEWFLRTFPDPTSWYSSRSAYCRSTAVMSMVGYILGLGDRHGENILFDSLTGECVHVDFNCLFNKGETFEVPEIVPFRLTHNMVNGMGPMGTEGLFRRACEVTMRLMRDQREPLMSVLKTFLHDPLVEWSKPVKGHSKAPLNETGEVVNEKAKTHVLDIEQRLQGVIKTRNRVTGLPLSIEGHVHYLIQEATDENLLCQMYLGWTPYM
Sequence of ATR kinase (Q8WXE1 whole entry partner, looked up): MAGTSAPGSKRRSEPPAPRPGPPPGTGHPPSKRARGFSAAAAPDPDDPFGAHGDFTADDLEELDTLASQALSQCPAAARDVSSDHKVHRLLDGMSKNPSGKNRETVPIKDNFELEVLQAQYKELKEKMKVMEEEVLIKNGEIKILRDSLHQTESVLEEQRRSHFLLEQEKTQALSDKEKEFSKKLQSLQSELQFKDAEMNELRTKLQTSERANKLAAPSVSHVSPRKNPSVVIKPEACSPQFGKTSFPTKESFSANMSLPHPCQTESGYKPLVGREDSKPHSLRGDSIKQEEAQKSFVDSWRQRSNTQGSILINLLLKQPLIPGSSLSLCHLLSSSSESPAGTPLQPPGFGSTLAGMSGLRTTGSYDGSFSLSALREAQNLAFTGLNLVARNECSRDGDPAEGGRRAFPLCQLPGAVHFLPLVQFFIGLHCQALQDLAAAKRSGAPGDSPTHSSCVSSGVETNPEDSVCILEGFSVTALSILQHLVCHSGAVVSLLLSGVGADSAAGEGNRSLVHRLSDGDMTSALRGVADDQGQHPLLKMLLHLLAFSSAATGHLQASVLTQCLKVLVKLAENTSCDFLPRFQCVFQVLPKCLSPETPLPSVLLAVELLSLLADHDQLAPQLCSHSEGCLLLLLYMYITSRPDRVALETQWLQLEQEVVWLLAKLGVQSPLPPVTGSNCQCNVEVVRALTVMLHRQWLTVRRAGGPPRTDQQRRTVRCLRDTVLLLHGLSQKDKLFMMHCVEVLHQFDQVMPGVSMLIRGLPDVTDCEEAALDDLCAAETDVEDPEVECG

SMILES	IC50 (ATR kinase) [nM]	IC50 [1, 5] [µM]	IC50 (MV4-11 (leukemia) cells; Homo sapiens) [µM]	IC50 [1, 6] [µM]	IC50 (MV4-11 (leukemia) cells) [µM]	also measured
Cc1nn(C2CCNCC2)c(C(F)(F)F)c1-c1cc(N2CCOC[C@H]2C)nc2c(-c3ccccn3)cnn12 [Compound A6]	17	–	–	–	–	–
Cc1nn(-c2cncc(C#N)c2)c(C)c1-c1cc(N2CCOC[C@H]2C)nc2c(-c3ccn[nH]3)cnn12 [Compound A11]	–	0.38	0.5	–	–	–
Cc1nn(C2CCNC[C@@H]2F)c(C)c1-c1cc(N2CCOC[C@H]2C)nc2c(-c3ccn[nH]3)cnn12 (some centres unmarked) [Compound A16-I]	33	–	–	1.4	0.89	–
Cc1nn(-c2cncc(Cl)c2)c(C)c1-c1cc(N2CCOC[C@H]2C)nc2c(-c3ccn[nH]3)cnn12 [Compound A12]	2	0.33	0.26	–	–	AUC [2]: 8330 ng·h/mL; Cmax [2]: 2270 ng/mL; Tmax [2]: 0.33 h; half-life [2]: 1.98 h
Cc1cncc(-n2nc(C)c(-c3cc(N4CCOC[C@H]4C)nc4c(-c5ccn[nH]5)cnn34)c2C)c1 [Compound A23]	4	0.26	0.3	–	–	–
Cc1nn(-c2cncc(F)c2)c(C)c1-c1cc(N2CCOC[C@H]2C)nc2c(-c3ccn[nH]3)cnn12 [Compound A9]	2	–	0.25	–	–	IC50 ([1]; Homo sapiens, TOV21G, 120 h): 0.28 µM; half-life at 2 nM [3]: 1.43 h; half-life at 2 nM [4]: 3.63 h; AUC [2]: 6950 ng·h/mL; Cmax [2]: 1810 ng/mL; Tmax [2]: 0.25 h; half-life [2]: 3.3 h; IC50 (ATM): 6370 nM; IC50 (DNA-PK): 303 nM; IC50 (PI3Kα): 4060 nM; IC50 (PI3Kδ): 1130 nM; IC50 (mTOR): 1830 nM
Cc1nn(CCO)c(C)c1-c1cc(N2CCOC[C@H]2C)nc2c(-c3ccn[nH]3)cnn12 [Compound A18]	8	–	–	0.56	0.74	–
Cc1nn(C2CCNCC2)c(C)c1-c1cc(N2CCOC[C@H]2C)nc2c(-c3ccn[nH]3)cnn12 [Compound A3]	184	–	–	–	–	–
Cc1nn(-c2cccnc2)c(C)c1-c1cc(N2CCOC[C@H]2C)nc2c(-c3ccn[nH]3)cnn12 [Compound A22]	2	0.19	0.23	–	–	–
Cc1nn(C(=O)N2CCNCC2)c(C)c1-c1cc(N2CCOC[C@H]2C)nc2c(-c3ccn[nH]3)cnn12 [Compound A15]	13	–	–	0.27	0.45	–
Cc1nn(C2CCNC[C@H]2F)c(C)c1-c1cc(N2CCOC[C@H]2C)nc2c(-c3ccn[nH]3)cnn12 (some centres unmarked) [Compound A16-II]	31	–	–	0.52	0.57	–
Cc1nn(C2CCNCC2)c(C(F)(F)F)c1-c1cc(N2CCOC[C@H]2C)nc2c(-c3ccn[nH]3)cnn12 [Compound A1]	70	0.66	0.66	–	–	–
Cc1nn(-c2ccncc2)c(C)c1-c1cc(N2CCOC[C@H]2C)nc2c(-c3ccn[nH]3)cnn12 [Compound A24]	2	0.15	0.23	–	–	–
Cc1nn(-c2ccc(=O)[nH]c2)c(C)c1-c1cc(N2CCOC[C@H]2C)nc2c(-c3ccn[nH]3)cnn12 [Compound A14]	3	–	–	–	–	–
Cc1nn(-c2ccnnc2)c(C)c1-c1cc(N2CCOC[C@H]2C)nc2c(-c3ccn[nH]3)cnn12 [Compound A13]	2	0.21	0.28	–	–	–
Cc1noc(C)c1-c1cc(N2CCOC[C@H]2C)nc2c(-c3ccn[nH]3)cnn12 [Compound A4]	74	1.05	0.75	–	–	–
C[C@@H]1COCCN1c1cc(-c2cccnc2C(F)(F)F)n2ncc(-c3ccn[nH]3)c2n1 [Compound A21]	52	0.63	0.74	–	–	–
Cc1nn(-c2cncc(C(F)F)c2)c(C)c1-c1cc(N2CCOC[C@H]2C)nc2c(-c3ccn[nH]3)cnn12 [Compound A10]	3	–	0.27	–	–	IC50 ([1]; Homo sapiens, TOV21G, 120 h): 0.3 µM; half-life at 2 nM [3]: 0.6 h; half-life at 2 nM [4]: 2.7 h; AUC [2]: 14300 ng·h/mL; Cmax [2]: 4890 ng/mL; Tmax [2]: 0.25 h; half-life [2]: 1.76 h; IC50 (ATM): 4120 nM; IC50 (DNA-PK): 1260 nM
C[C@@H]1COCCN1c1cc(C2(O)CCOCC2)n2ncc(-c3ccn[nH]3)c2n1 [Compound A20]	188	–	–	0.73	0.92	–
Cc1nn(-c2cncc(C(N)=O)c2)c(C)c1-c1cc(N2CCOC[C@H]2C)nc2c(-c3ccn[nH]3)cnn12 [Compound A17]	3	–	–	1.29	0.85	–
Cc1c(-c2cc(N3CCOC[C@H]3C)nc3c(-c4ccn[nH]4)cnn23)c(C(F)(F)F)nn1C1CCNCC1 [Compound A2]	33	0.83	0.78	–	–	–
Cc1nnn(C)c1-c1cc(N2CCOC[C@H]2C)nc2c(-c3ccn[nH]3)cnn12 [Compound A8]	84	–	–	0.78	0.68	–
Cc1nn(C2CCNCC2)c(C(F)(F)F)c1-c1cc(N2CCOC[C@H]2C)nc2c(-c3cccs3)cnn12 [Compound A7]	12	–	–	–	–	–
Cc1nn(-c2cncc(O)c2)c(C)c1-c1cc(N2CCOC[C@H]2C)nc2c(-c3ccn[nH]3)cnn12 [Compound A19]	4	–	–	0.66	0.6	–
